Experiment [1] has as its system A549. As to the kind of experiment: In vitro rate of inhibition of A-549 tumor cell growth at 10E-4 mol/L. The class given is functional, Homo sapiens. The note with it: at 100 µM.
Experiment [2] deals with A549. Briefly: In vitro rate of inhibition of A-549 tumor cell growth at 10E-5 mol/L. The class given is functional, Homo sapiens. The note with it: at 10 µM.
Experiment [3] relates to A549. As to the kind of experiment: In vitro rate of inhibition of A-549 tumor cell growth at 10E-7 mol/L. Format: functional, Homo sapiens. The note with it: at 0.1 µM.
The test system of experiment [4] is A549. Briefly: In vitro rate of inhibition of A-549 tumor cell growth at 10E-8 mol/L. Format: functional, Homo sapiens. Conditions: at 0.01 µM.
The subject of experiment [5] is P388. As to the kind of experiment: In vitro rate of inhibition of P388 tumor cell growth at 10E-5 mol/L. The class given is functional, Mus musculus. Conditions: at 10 µM.
Experiment [6] concerns P388. As to the kind of experiment: In vitro rate of inhibition of P388 tumor cell growth at 10E-6 mol/L. Format: functional, Mus musculus. Conditions: at 1 µM.
For experiment [7], the system named is P388. As to the kind of experiment: In vitro rate of inhibition of P388 tumor cell growth at 10E-7 mol/L. Conditions: at 0.1 µM. The class given is functional, Mus musculus.
Experiment [8] relates to P388. Briefly: In vitro rate of inhibition of P388 tumor cell growth at 10E-8 mol/L. Conditions: at 0.01 µM. The class given is functional, Mus musculus.
The test system of experiment [9] is A549. Briefly: In vitro rate of inhibition of A-549 tumor cell growth at 10E-6 mol/L. The class given is functional, Homo sapiens. The note with it: at 1 µM.
Experiment [10] has as its system P388. As to the kind of experiment: In vitro rate of inhibition of P388 tumor cell growth at 10E-4 mol/L. The class given is functional, Mus musculus. Conditions: at 100 µM.

As for `CCCC1=NN(C(=O)OC)C(CCC)N=N1` (stereo not given), the Rate of inhibition in [1] came out at 59.6%; in [2], 0%; in experiment [3] it was 0%; in experiment [4] it was 0%; in experiment [5], 17.3%; in [6], 4.5%. Besides, the Rate of inhibition in experiment [7] stood at 1.7%; in experiment [8] it was 3.3%; in [9], 0%; in experiment [10], 90.4%.

On to `Clc1ccc(Cc2nnc(Cc3ccc(Cl)cc3)nn2)cc1`, for which the Rate of inhibition in experiment [1] was determined as 65.8%; in experiment [2], 57.1%; in [3], 1.1%; in experiment [4] it was 8.7%; in experiment [5], 29.1%; in experiment [6], 9.3%. The Rate of inhibition in experiment [7] is on record as 8.9%; in experiment [8], 0%; in experiment [9], 13.1%; in [10] it was 58.4%.

With `Cc1ccc(-c2nnc(-c3ccc(C)cc3)nn2)cc1`, the Rate of inhibition in [1] amounted to 90.3%; in experiment [2] it was 17%; in experiment [3], 0%; in experiment [4], 0%; in experiment [5], 8.3%; in experiment [6], 4.4%. The Rate of inhibition in experiment [7] amounted to 2.4%; in experiment [8] it was 4.5%; in experiment [9], 0%; in experiment [10] it was 56.4%.

Regarding `CCCC1=NN(C(=O)Nc2cccc(Cl)c2)C(CCC)=NN1C(=O)Nc1cccc(Cl)c1`, the Rate of inhibition in experiment [1] worked out at 91.3%; in experiment [2], 88.4%; in [3], 10.8%; in experiment [4], 0%; in experiment [5], 58.7%; in [6], 0%. Moreover, the Rate of inhibition in experiment [7] was 0%; in [8], 0%; in experiment [9], 59.6%; in experiment [10] it was 84.4%.

Turning to `CCOC(=O)c1cccc(NC(=O)N2N=C(C)N(C(=O)Nc3cccc(C(=O)OCC)c3)N=C2C)c1`, the Rate of inhibition is 67% in [1]; 12.5% in [2]; 5.7% in [3]; 1.1% in experiment [4]; 0% in experiment [5]; 0% in experiment [6]. The Rate of inhibition amounted to 0% in experiment [7], 0% in [8], 6.8% in [9] and 46.3% in experiment [10].

Turning to `CCCCC1NN(C(C)=O)C(CCCC)NN1C(C)=O` (stereo not given), the Rate of inhibition in [1] is on record as 47.6%; in experiment [2], 13.1%; in experiment [3], 4.8%; in experiment [4] it was 0%; in experiment [5], 0%; in experiment [6], 0%. Besides, the Rate of inhibition was determined as 0% in [7], 0% in experiment [8], 6.4% in experiment [9] and 37.9% in experiment [10].

Regarding `COc1ccccc1NC(=O)N1N=C(C)N(C(=O)Nc2ccccc2OC)N=C1C`, the Rate of inhibition in [1] is reported as 80%; in experiment [2], 0%; in experiment [3], 0%; in [4] it was 0%; in experiment [5], 17.2%; in [6] it was 1.6%. Besides, the Rate of inhibition in [7] was determined as 0%; in experiment [8], 0%; in experiment [9], 0%; in [10] it was 59.4%.
